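Assay format: 96-well plates, 48-hour exposure. The concentration for full growth arrest is given as TGI.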
Experiments:
Assay in all cases: inhibition of tumour cell growth, NCI panel, 48 h
OVCAR-4 ovarian = tested on: OVCAR-4 ovarian
K-562 leukemia = tested on: K-562 leukemia
LOX IMVI melanoma = tested on: LOX IMVI melanoma
UACC-62 melanoma = tested on: UACC-62 melanoma
SK-OV-3 ovarian = tested on: SK-OV-3 ovarian
SK-MEL-5 melanoma = tested on: SK-MEL-5 melanoma
SN12C renal = tested on: SN12C renal
EKVX NSCLC = tested on: EKVX NSCLC
M14 melanoma = tested on: M14 melanoma
SW-620 colon = tested on: SW-620 colon
MALME-3M melanoma = tested on: MALME-3M melanoma
PC-3 prostate = tested on: PC-3 prostate
RXF 393 renal = tested on: RXF 393 renal
T-47D breast = tested on: T-47D breast
SK-MEL-2 melanoma = tested on: SK-MEL-2 melanoma
NCI/ADR-RES ovarian = tested on: NCI/ADR-RES ovarian
NCI-H522 lung = tested on: NCI-H522 lung
HOP-92 NSCLC = tested on: HOP-92 NSCLC
CCRF-CEM leukemia = tested on: CCRF-CEM leukemia
MCF7 breast = tested on: MCF7 breast

Row | SMILES | TGI (OVCAR-4 ovarian) | TGI (K-562 leukemia) | TGI (LOX IMVI melanoma) | TGI (UACC-62 melanoma) | TGI (SK-OV-3 ovarian) | TGI (SK-MEL-5 melanoma) | TGI (SN12C renal) | TGI (EKVX NSCLC) | TGI (M14 melanoma) | TGI (SW-620 colon) | TGI (MALME-3M melanoma) | TGI (PC-3 prostate) | TGI (RXF 393 renal) | TGI (T-47D breast) | TGI (SK-MEL-2 melanoma) | TGI (NCI/ADR-RES ovarian) | TGI (NCI-H522 lung) | TGI (HOP-92 NSCLC) | TGI (CCRF-CEM leukemia) | TGI (MCF7 breast)
1 | O=c1c2c3c(sc2nc2n1N=CN(c1ccc(Cl)cc1)C2)CCCC3 | > 100 µM | > 100 µM | > 100 µM | > 100 µM | > 100 µM | > 100 µM | > 100 µM | > 100 µM | > 100 µM | > 100 µM | 97.9 µM | > 100 µM | > 100 µM | > 100 µM | > 100 µM | > 100 µM | > 100 µM | > 100 µM | > 100 µM | > 100 µM
2 | CC(C)N1CCCOC(c2ccc([N+](=O)[O-])cc2)O1 (stereo unspecified) | > 100 µM | > 100 µM | > 100 µM | > 100 µM | > 100 µM | > 100 µM | > 100 µM | > 100 µM | > 100 µM | > 100 µM | > 100 µM | > 100 µM | > 100 µM | > 100 µM | > 100 µM | > 100 µM | > 100 µM | > 100 µM | > 100 µM | > 100 µM
3 | NC(=O)NC(=O)c1ccc(NC(=O)CBr)cc1 |  | 3.92 µM | 2.26 µM | 4.03 µM | 9.49 µM | 3.23 µM | 1.18 µM | 5.41 µM |  | 1.74 µM | 3.96 µM | 4.39 µM | 3.32 µM | 4.01 µM | 4.61 µM | 7.53 µM | 0.277 µM | 4.59 µM | 0.376 µM | 4.9 µM
4 | O=Cc1ccc2c(c1)CC1(C2)Cc2ccc(C=O)cc2C1 | > 69.7 µM | 12.9 µM | 21.8 µM | 23.8 µM | > 100 µM | 16.7 µM | 64.5 µM | > 100 µM | 19.7 µM | 39.2 µM | 46.1 µM | 43.3 µM | > 25.4 µM | 71.8 µM | 30.8 µM | 32.5 µM | 54.9 µM | 53.2 µM | 5.9 µM | > 70 µM
5 | CC(C)C(Cl)CC/C(CBr)=C(\Cl)CCl (stereo unspecified) | 7.34 µM | 3.69 µM | 1.2 µM | 6.16 µM | 17.8 µM | 5.95 µM | 10.2 µM | 34 µM | 4.06 µM | 4.26 µM | 19.6 µM | 23.9 µM | 11.3 µM | 3.29 µM | 5.64 µM | > 79.1 µM | 2.49 µM | 7.73 µM |  | 1.29 µM
6 | Cc1cc(NCC2CC/C(=C\C=C\c3ccccc3)C2=O)no1 (stereo unspecified) | > 100 µM | > 100 µM | > 100 µM | > 100 µM | > 100 µM | > 100 µM | > 100 µM | > 100 µM | > 100 µM | > 100 µM | > 100 µM | > 100 µM | > 100 µM | > 100 µM |  | > 100 µM | > 100 µM | > 100 µM | > 100 µM | > 100 µM
7 | COC(=O)/C(C#N)=C(\Nc1ccccc1)N1CCCCC1 | > 100 µM | > 100 µM | > 100 µM |  | > 100 µM | > 100 µM | > 100 µM | > 100 µM | > 100 µM | > 100 µM | > 100 µM | > 100 µM | > 100 µM | > 100 µM | > 100 µM | > 100 µM | > 100 µM | > 100 µM |  | > 100 µM
8 | CC(C)(CCCCC(C)(C)NCC1COc2ccccc2O1)NCC1COc2ccccc2O1 (stereo unspecified) | > 10 µM | > 10 µM | > 10 µM | 9.93 µM | > 10 µM | 2.95 µM | > 10 µM | > 10 µM | 3.4 µM | > 10 µM | 4.65 µM | > 10 µM | 8.83 µM | > 10 µM | 6.68 µM | > 10 µM | > 10 µM | 7.43 µM | > 10 µM | > 10 µM
9 | COc1cc(/C=N/NC2=NCCCN2)ccc1O | > 100 µM | > 100 µM | > 100 µM | > 100 µM | > 100 µM | > 100 µM | > 100 µM | > 100 µM | > 100 µM | > 100 µM | > 100 µM | > 100 µM | > 100 µM | > 100 µM | > 100 µM | > 100 µM | > 100 µM | > 100 µM | > 100 µM | > 100 µM
10 | CC1=[N+]([O-])C(C)(C)N(O)C1(C)C | > 100 µM | > 100 µM | > 100 µM | > 100 µM | > 100 µM | > 100 µM | > 100 µM | > 100 µM | > 100 µM | > 100 µM | > 100 µM | > 100 µM | > 100 µM | > 100 µM | > 100 µM | > 100 µM | > 100 µM | > 100 µM | > 100 µM | > 100 µM
11 | O=C(O)CCSc1nnc(COc2ccc(Cl)cc2)n1-c1ccccc1 | > 100 µM | > 100 µM | > 100 µM | > 100 µM | > 100 µM |  | > 100 µM | > 100 µM | > 100 µM | > 100 µM | > 100 µM | > 100 µM | > 100 µM | > 100 µM | > 100 µM | > 100 µM | > 100 µM | > 100 µM | > 100 µM | > 100 µM
12 | COc1cc(C2S/C(=C/c3ccccc3)C(=O)N2c2ccc([N+](=O)[O-])cc2)cc(OC)c1OC (stereo unspecified) | > 100 µM | > 100 µM | > 100 µM | > 100 µM | > 100 µM | > 100 µM | > 100 µM | > 100 µM | > 100 µM | > 100 µM | > 100 µM | > 100 µM | > 100 µM | > 100 µM | > 100 µM | > 100 µM | > 100 µM | > 100 µM | > 100 µM | > 100 µM
13 | CC1(C)OC(=O)CC12CCN(Cc1ccccc1)CC2 | > 100 µM | > 100 µM | > 100 µM | > 100 µM | > 100 µM | > 100 µM | > 100 µM | > 100 µM |  |  | > 100 µM | > 100 µM | > 100 µM | > 100 µM | > 100 µM | > 100 µM | > 100 µM | > 100 µM | > 100 µM | > 100 µM
